From patent US20220324803A1 (Teon Therapeutics, Inc., priority 2019, published 2022)

Key:
[1] = target: T1, human Prostanoid EP4 Receptor (EP4) (Homo sapiens, UniProt P35408); assay: Prostanoid EP4 binding assay (3H-prostaglandin E2 displacement, cell membranes); conditions: HEK293 cell membranes with human EP4, 3H-prostaglandin E2, 24° C.
T1 construct: expressed in transfected cells; host or cells: HEK293 (G418 selection); membranes prepared by differential centrifugation
Procedure: HEK293 cells transfected with human Prostanoid EP4 Receptor (EP4) are maintained in DMEM supplemented with L-Glutamine, 10% FBS and 300 μg/ml G418. Cells are harvested and membranes prepared by differential centrifugation, following lysis of the cells in the presence of protease inhibitors, for use in the receptor binding assay. EP4 binding assay is performed in 50 mM HEPES pH7.4, 5 mM MgCl2, 1 mM CaCl2) and 0.2% BSA. Testing compounds are diluted with DMSO to make 8-point 4-fold serial dilution. Cell membrane homogenates are incubated at 24° C. with ^3H-prostaglandin E2 in the absence or presence of the testing compound in assay buffer. Nonspecific binding (Low control: LC) and total binding (High control: HC) are determined in the presence or absence of saturated cold ligand Prostaglandin E2 (PGE2). Specific binding is calculated by subtracting nonspecific binding from total binding. When binding assays are completed, the reaction mixture is filtered rapidly under vacuum through glass fiber filters (GF/C, Packard) presoaked with 0.5% BSA for at least 0.5 hour at room temperature and then washed for 4 times with cold wash buffer (50 mM HEPES pH7.4, 500 mM NaCl, 0.1% BSA) using a 96-sample Perkin Elmer Filtermate Harvester (Unifilter, Packard). The filters are dried for 1 hour at 50 degrees then counted for radioactivity in a scintillation counter using Perkin Elmer Microscint 20 cocktail. ^3H trapped on filter is counted using Perkin Elmer MicroBeta2 Reader. Inhibition is calculated using following equation: % Inhibition=(1−(Assay well−Average_LC)/(Average_HC−Average_LC))×100%. The results are expressed as a percent inhibition of the control radioligand specific binding. Data are analyzed and IC50 is calculated using GraphPad Prism 5 and the model “log(inhibitor) vs. response—Variable slope”. The binding affinity of the compounds is determined by using the Cheng and Prusoff equation Ki=IC50/(1+[radioligand]/Kd).

[2] = target: T1, human Prostanoid EP4 Receptor (EP4); assay: Prostanoid EP4 FLIPR assay (calcium flux, PGE2 addition); assay type: cell-based; conditions: HEK293 cells transfected with human EP4, Fluo-4 calcium dye
Procedure: (§1) HEK293 cells transfected with human Prostanoid EP4 Receptor (EP4) or CHO cells transfected with human Prostanoid EP2 Receptor (EP2) are maintained in DMEM supplemented with L-Glutamine, 10% FBS and 300 μg/ml G418. Cells are plated at 20,000 cells/well in black 384-well Poly-D-Lysine protein coating plate and incubated at 37° C., 5% CO2 for 24 h. Prior to the assay, calcium-sensitive dye Fluo-4 Direct™ (Molecular Devices) is reconstituted according to manufacturer instructions. The reconstituted dye was diluted in assay buffer (1× HBSS, 20 mM HEPES, and 2.5 mM Probenicid, pH 7.4). Growth media is removed and 20 μl of this diluted dye is added to each well at a final concentration of 2 μM. Plates are incubated for 50 min at 37° C. 5% C02 and 10 min at RT after dye addition. Testing compounds are diluted with DMSO to make 10-point 4-fold serial dilution. After the pre-treatment incubation, fluorescence intensity is measured on a FlexStation II fluorometric imaging plate reader (Molecular Devices). Relative fluorescence units (RFU) are measured before (20 readings) and after (40 readings) the PGE2 addition for a total 60 sec read time (Excitation=485 nm, Emission=525 nm). Data are analyzed and IC50 is calculated using GraphPad Prism 5 and the model “log(inhibitor) vs. response—Variable slope”.
(§2) Illustrative data for representative compounds are described in Table 2.

[3] = target: T2, human Prostanoid EP2 Receptor (EP2) (Homo sapiens, UniProt P43116); assay: Prostanoid EP2 FLIPR assay (calcium flux, PGE2 addition); assay type: cell-based; conditions: CHO cells transfected with human EP2, Fluo-4 calcium dye
T2 construct: expressed in transfected cells; host or cells: CHO (G418 selection)
T2 sequence (P43116 whole entry): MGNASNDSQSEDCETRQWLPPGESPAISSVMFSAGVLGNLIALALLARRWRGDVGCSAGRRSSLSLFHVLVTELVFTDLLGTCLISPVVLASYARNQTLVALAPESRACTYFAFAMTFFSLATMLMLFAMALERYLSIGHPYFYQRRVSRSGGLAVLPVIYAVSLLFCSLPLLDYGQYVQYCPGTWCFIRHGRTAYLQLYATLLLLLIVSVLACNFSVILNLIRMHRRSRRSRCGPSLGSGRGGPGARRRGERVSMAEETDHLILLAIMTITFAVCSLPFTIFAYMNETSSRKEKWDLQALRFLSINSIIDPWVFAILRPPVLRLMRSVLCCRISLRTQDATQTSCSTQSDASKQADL
Procedure: as §1, §2

T1 sequence (P35408 whole entry): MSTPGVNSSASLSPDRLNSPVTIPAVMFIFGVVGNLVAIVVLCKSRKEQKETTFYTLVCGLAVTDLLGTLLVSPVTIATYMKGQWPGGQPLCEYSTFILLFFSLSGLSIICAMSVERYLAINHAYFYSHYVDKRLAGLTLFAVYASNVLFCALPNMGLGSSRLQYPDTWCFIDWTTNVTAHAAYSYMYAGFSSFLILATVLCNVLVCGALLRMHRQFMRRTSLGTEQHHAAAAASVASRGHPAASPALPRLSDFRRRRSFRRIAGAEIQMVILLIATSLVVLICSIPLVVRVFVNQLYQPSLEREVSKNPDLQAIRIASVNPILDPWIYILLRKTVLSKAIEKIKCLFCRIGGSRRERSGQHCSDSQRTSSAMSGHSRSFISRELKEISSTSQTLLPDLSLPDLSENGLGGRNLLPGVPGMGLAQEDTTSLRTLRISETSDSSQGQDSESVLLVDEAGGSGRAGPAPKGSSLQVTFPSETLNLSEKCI

Row | SMILES | Ki [1] [nM] | IC50 [2] [nM] | IC50 [3] [nM]
1 | O=C(NC1CC2(C1)CC(C(=O)O)C2)c1cnn2cccc(Cc3cc4ccccc4cn3)c12 (single isomer, unassigned) [Compound 13A, cis-2-[[4-(3-isoquinolylmethyl)pyrazolo[1,5-a]pyridine-3-carbonyl]amino]spiro[3.3]heptane-6-carboxylic acid] | > 500 | 100 to 499 | –
2 | O=C(N[C@H]1CC2(C1)C[C@H](C(=O)O)C2)c1cnn2cccc(Cc3ccc(C(F)(F)F)cc3)c12 (single isomer, unassigned) [Compound 14A, cis-6-[[4-[[4-(trifluoromethyl)phenyl]methyl]pyrazolo[1,5-a]pyridine-3-carbonyl]amino]spiro[3.3]heptane-2-carboxylic acid] | 100 to 499 | 100 to 499 | > 1000
3 | O=C(N[C@H]1CC2(C1)C[C@H](C(=O)O)C2)c1cnn2cccc(Cc3ccc(C(F)(F)F)cc3)c12 (single isomer, unassigned) [Compound 14B, trans-2-[[4-[[4-(trifluoromethyl)phenyl]methyl]pyrazolo[1,5-a]pyridine-3-carbonyl]amino]spiro[3.3]heptane-6-carboxylic acid] | < 100 | < 100 | > 1000
4 | C[C@H](NC(=O)c1cnn2cccc(Cc3ccc(C(F)(F)F)cc3)c12)c1ccc(C(=O)O)cc1 [Compound 1, 4-[(1S)-1-[[4-[[4-(trifluoromethyl)phenyl]methyl]pyrazolo[1,5-a]pyridine-3-carbonyl]amino]ethyl]benzoic acid] | < 100 | < 100 | > 1000
5 | O=C(NC1CC2(C1)CC(C(=O)O)C2)c1cnn2cccc(Cc3ccc(C(F)(F)F)cc3)c12 (centres unmarked) [Compound 2, 2-[[4-[[4-(trifluoromethyl)phenyl]methyl]pyrazolo[1,5-a]pyridine-3-carbonyl]amino]spiro[3.3]heptane-6-carboxylic acid] | < 100 | < 100 | > 1000
6 | C[C@H](NC(=O)c1cnn2cccc(Cc3cccc(C(F)(F)F)c3)c12)c1ccc(C(=O)O)cc1 [Compound 3, 4-[(1S)-1-[[4-[[3-(trifluoromethyl)phenyl]methyl]pyrazolo[1,5-a]pyridine-3-carbonyl]amino]ethyl]benzoic acid] | < 100 | < 100 | > 1000
7 | O=C(NC1CC2(C1)CC(C(=O)O)C2)c1cnn2cccc(Cc3cccc(C(F)(F)F)c3)c12 (centres unmarked) [Compound 4, 2-[[4-[[3-(trifluoromethyl)phenyl]methyl]pyrazolo[1,5-a]pyridine-3-carbonyl]amino]spiro[3.3]heptane-6-carboxylic acid] | < 100 | < 100 | > 1000
8 | C[C@H](NC(=O)c1n[nH]c2cccc(Cc3ccc(C(F)(F)F)cc3)c12)c1ccc(C(=O)O)cc1 [Compound 7, 4-[(1S)-1-[[4-[[4-(trifluoromethyl)phenyl]methyl]-1H-indazole-3-carbonyl]amino]ethyl]benzoic acid] | < 100 | < 100 | > 1000
9 | O=C(NC1CC2(C1)CC(C(=O)O)C2)c1n[nH]c2cccc(Cc3ccc(C(F)(F)F)cc3)c12 (centres unmarked) [Compound 8, 2-[[4-[[4-(trifluoromethyl)phenyl]methyl]-1H-indazole-3-carbonyl]amino]spiro[3.3]heptane-6-carboxylic acid] | < 100 | < 100 | > 1000
10 | CCn1nc(C(=O)N[C@@H](C)c2ccc(C(=O)O)cc2)c2c(Cc3ccc(C(F)(F)F)cc3)cccc21 [Compound 9, 4-[(1S)-1-[[1-ethyl-4-[[4-(trifluoromethyl)phenyl]methyl]indazole-3-carbonyl]amino]ethyl]benzoic acid] | < 100 | < 100 | > 1000
11 | CCn1nc2cccc(Cc3ccc(C(F)(F)F)cc3)c2c1C(=O)N[C@@H](C)c1ccc(C(=O)O)cc1 [Compound 10, 4-[(1S)-1-[[2-ethyl-4-[[4-(trifluoromethyl)phenyl]methyl]indazole-3-carbonyl]amino]ethyl]benzoic acid] | 100 to 499 | < 100 | > 1000
12 | C[C@H](NC(=O)c1cnn2cccc(Cc3cc4ccccc4cn3)c12)c1ccc(C(=O)O)cc1 [Compound 12, 4-[(1S)-1-[[4-(3-isoquinolylmethyl)pyrazolo[1,5-a]pyridine-3-carbonyl]amino]ethyl]benzoic acid] | < 100 | < 100 | > 1000
13 | O=C(O)CC12CC(NC(=O)c3cnn4cccc(Cc5cccc(C(F)(F)F)c5)c34)(C1)C2 [Compound 16, 2-[3-[[4-[[3-(trifluoromethyl)phenyl]methyl]pyrazolo[1,5-a]pyridine-3-carbonyl]amino]-1-bicyclo[1.1.1]pentanyl]acetic acid] | > 500 | 100 to 499 | –
14 | O=C(O)CC12CC(NC(=O)c3n[nH]c4cccc(Cc5ccc(C(F)(F)F)cc5)c34)(C1)C2 [Compound 18, 2-(3-(4-(4-(trifluoromethyl)benzyl)-1H-indazole-3-carboxamido)bicyclo[1.1.1]pentan-1-yl)acetic acid] | 100 to 499 | < 100 | –
15 | CCn1cc(C(=O)NC23CC(CC(=O)O)(C2)C3)c2c(Cc3ccc(C(F)(F)F)cc3)cccc21 [Compound 51, 2-[3-[[1-ethyl-4-[[4-(trifluoromethyl)phenyl]methyl]indole-3-carbonyl]amino]-1-bicyclo[1.1.1]pentanyl]acetic acid] | < 100 | – | –
16 | O=C(O)CC12CC(NC(=O)c3cn(CCF)c4cccc(Cc5ccc(C(F)(F)F)cc5)c34)(C1)C2 [Compound 52, 2-[3-[[1-(2-fluoroethyl)-4-[[4-(trifluoromethyl)phenyl]methyl]-indole-3-carbonyl]amino]-1-bicyclo[1.1.1.1]pentanyl]acetic acid] | < 100 | – | –
17 | CCn1cc(C(=O)NC23CC(CC(=O)O)(C2)C3)c2c(Cc3ccc(C(F)(F)F)cc3)ccnc21 [Compound 53] | < 100 | – | –
18 | O=C(O)CC12CC(NC(=O)c3cn(CCF)c4nccc(Cc5ccc(C(F)(F)F)cc5)c34)(C1)C2 [Compound 54, 2-[3-[[1-(2-fluoroethyl)-4-[[4-(trifluoromethyl)phenyl]methyl]-pyrrolo[2,3-b]pyridine-3-carbonyl]amino]-1-bicyclo[1.1.1]pentanyl]acetic acid] | < 100 | – | –
19 | CCn1cc(C(=O)NC[C@H]2CC[C@H](C(=O)O)CC2)c2c(Cc3ccc(C(F)(F)F)cc3)cccc21 [Compound 55, (1r,4r)-4-[[[1-ethyl-4-[[4-(trifluoromethyl)phenyl]methyl]indole-3-carbonyl]amino]methyl]cyclohexanecarboxylic acid] | < 100 | – | –
20 | CCn1cc(C(=O)N[C@H]2CC[C@H](CC(=O)O)CC2)c2c(Cc3ccc(C(F)(F)F)cc3)cccc21 [Compound 56, 2-[(1r,4r)-4-[[1-ethyl-4-[[4-(trifluoromethyl)phenyl]methyl]indole-3-carbonyl]amino]cyclohexyl]acetic acid] | < 100 | – | –
21 | O=C(O)C[C@H]1CC[C@H](NC(=O)c2cn(CCF)c3nccc(Cc4ccc(C(F)(F)F)cc4)c23)CC1 [Compound 57, 2-[(1r,4r)-4-[[1-(2-fluoroethyl)-4-[[4-(trifluoromethyl)-phenyl]methyl]pyrrolo[2,3-b]pyridine-3-carbonyl]amino]cyclohexyl]acetic acid] | < 100 | – | –
22 | O=C(NC[C@H]1CC[C@H](C(=O)O)CC1)c1cn(CCF)c2nccc(Cc3ccc(C(F)(F)F)cc3)c12 [Compound 58, (1r,4r)-4-[[[1-(2-fluoroethyl)-4-[[4-(trifluoromethyl)-phenyl]methyl]-pyrrolo[2,3-b]pyridine-3-carbonyl]amino]methyl]cyclohexanecarboxylic acid] | < 100 | – | –
